The values that follow come from patent US20110182949A1, “STABILIZED TRANSDERMAL DRUG DELIVERY SYSTEM” (priority 2008, published 2011).

The series can be described thus: Glass transition temperature (DSC). It counts as physicochemical. Conditions: amorphous drug, dispersed in patch or undispersed.

Experimental: Example 1: To a glass jar Plastone 29/32 (12 g) and ethanol (7.56 g) were added. The admixture was mixed with a spatula, heated and sonicated in a water bath at 45° C. until a viscous solution was formed. To the solution was added scopolamine base (4.00 g). The admixture was mixed with a spatula, heated, sonicated and swirled until a clear viscous solution was formed. After the solution was cooled for a while, Dow Corning silicone adhesive 7-4302 (40.82 g, 60% solid) and ethyl acetate (8.34 g) were added. The material was quickly mixed at high shear to provide a cream-like uniform suspension. After air bubbles were removed by rolling overnight, the suspension was coated to a release liner, dried at room temperature for 5 minutes, in an oven set at 40° C. for 5 minutes and in an oven set at 85° C. for 5 minutes to form a thin layer of adhesive on release liner. A backing film Mediflex® 1502 was laminated to the adhesive side. Individual patches were die-cut and pouched.

Consider `O=C1CC[C@@]2(O)[C@H]3Cc4ccc(O)c5c4[C@@]2(CCN3CC2CC2)[C@H]1O5` [naltrexone], for which the “glass transition temperature (Tg)” value worked out at 79.5 °C.

With `CN1[C@@H]2C[C@@H](OC(=O)[C@H](CO)c3ccccc3)C[C@H]1[C@@H]1O[C@@H]12` [undispersed amorphous scopolamine, scopolamine], the “glass transition temperature (Tg)” value is “about 10 °C”.
